PubChem BioAssay AID272 (DTP/NCI, 2004)
Values joined by “and” are separate entries in the source; they are usually repeats but may differ in a detail not shown here. Equal values may be shown once. Records with an inconclusive call do not appear.

Test system: Lewis lung carcinoma i.m., BDF1 mice, T/C %
Experiment: NCI In Vivo Anticancer Drug Screen. Data for tumor model Lewis Lung Carcinoma (intramuscular) in B6D2F1 (BDF1) mice
Outline: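 Transplantable tumour model; readout survival or tumour size; value = treated (T) / vehicle control (C).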

[1] = endpoint: median survival time, dose: 100.0 mg/kg/injection, schedule: Q01DX011 (ip), vehicle: saline, higher = longer survival

For `CSc1ncnc2nc[nH]c12`, the T/C (endpoint: mean tumor weight (est.), dose: 1.56 mg/kg/injection, schedule: Q01DX011 (ip), vehicle: saline, higher = larger tumour) was 79 % of control, the T/C (endpoint: mean tumor weight (est.), dose: 3.12 mg/kg/injection, schedule: Q01DX011 (ip), vehicle: saline, higher = larger tumour) was 79 % of control and the T/C (endpoint: mean tumor weight (est.), dose: 6.25 mg/kg/injection, schedule: Q01DX011 (ip), vehicle: saline, higher = larger tumour) was 85 % of control. For the same compound, the T/C (endpoint: mean tumor weight (est.), dose: 12.5 mg/kg/injection, schedule: Q01DX011 (ip), vehicle: saline, higher = larger tumour) was 78 % of control, the T/C (endpoint: mean tumor weight (est.), dose: 25.0 mg/kg/injection, schedule: Q01DX011 (ip), vehicle: saline, higher = larger tumour) was 80 % of control and the T/C (endpoint: mean tumor weight (est.), dose: 50.0 mg/kg/injection, schedule: Q01DX011 (ip), vehicle: saline, higher = larger tumour) was 89 % of control. The T/C (endpoint: mean tumor weight (est.), dose: 100.0 mg/kg/injection, schedule: Q01DX011 (ip), vehicle: saline, higher = larger tumour) was 62 % of control, the T/C (endpoint: mean tumor weight, dose: 3.12 mg/kg/injection, schedule: Q01DX011 (ip), vehicle: other, higher = larger tumour) was 96 % of control and the T/C (endpoint: mean tumor weight, dose: 6.25 mg/kg/injection, schedule: Q01DX011 (ip), vehicle: other, higher = larger tumour) was 79 % of control. The T/C (endpoint: mean tumor weight, dose: 12.5 mg/kg/injection, schedule: Q01DX011 (ip), vehicle: other, higher = larger tumour) was 73 % of control, the T/C (endpoint: median survival time, dose: 1.56 mg/kg/injection, schedule: Q01DX011 (ip), vehicle: other, higher = longer survival) was 104 % of control and the T/C (endpoint: median survival time, dose: 1.56 mg/kg/injection, schedule: Q01DX011 (ip), vehicle: saline, higher = longer survival) was 92 % of control. For the same compound, the T/C (endpoint: median survival time, dose: 3.12 mg/kg/injection, schedule: Q01DX011 (ip), vehicle: saline, higher = longer survival) was 92 % of control, the T/C (endpoint: median survival time, dose: 6.25 mg/kg/injection, schedule: Q01DX011 (ip), vehicle: saline, higher = longer survival) was 90 % of control and the T/C (endpoint: median survival time, dose: 12.5 mg/kg/injection, schedule: Q01DX011 (ip), vehicle: other, higher = longer survival) was 93 % of control and 100 % of control. For the same compound, the T/C (endpoint: median survival time, dose: 12.5 mg/kg/injection, schedule: Q01DX011 (ip), vehicle: saline, higher = longer survival) was 88 % of control, the T/C (endpoint: median survival time, dose: 25.0 mg/kg/injection, schedule: Q01DX011 (ip), vehicle: saline, higher = longer survival) was 92 % of control and the T/C (endpoint: median survival time, dose: 50.0 mg/kg/injection, schedule: Q01DX011 (ip), vehicle: other, higher = longer survival) was 109 % of control. The T/C (endpoint: median survival time, dose: 50.0 mg/kg/injection, schedule: Q01DX011 (ip), vehicle: saline, higher = longer survival) was 90 % of control and the T/C [1] was 105 % of control.

With `CC[C@]1(O)C[C@H]2CN(CCc3c([nH]c4ccccc34)[C@@](C(=O)OC)(c3cc4c(cc3OC)N(C=O)[C@H]3[C@@](O)(C(=O)OC)[C@H](OC(C)=O)[C@]5(CC)C=CCN6CC[C@]43[C@@H]65)C2)C1` the T/C (endpoint: mean tumor weight (est.), dose: 0.05 mg/kg/injection, schedule: Q01DX009 (ip), vehicle: water, higher = larger tumour) was 57 % of control, the T/C (endpoint: mean tumor weight (est.), dose: 0.08 mg/kg/injection, schedule: Q01DX009 (ip), vehicle: water, higher = larger tumour) was 99 % of control and the T/C (endpoint: mean tumor weight (est.), dose: 0.14 mg/kg/injection, schedule: Q01DX009 (ip), vehicle: water, higher = larger tumour) was 69 % of control. The T/C (endpoint: mean tumor weight (est.), dose: 0.23 mg/kg/injection, schedule: Q01DX009 (ip), vehicle: water, higher = larger tumour) was 55 % of control, the T/C (endpoint: mean tumor weight, dose: 0.12 mg/kg/injection, schedule: Q01DX011 (ip), vehicle: water, higher = larger tumour) was 116 % of control and the T/C (endpoint: mean tumor weight, dose: 0.14 mg/kg/injection, schedule: Q01DX009 (ip), vehicle: water, higher = larger tumour) was 46 % of control. For the same compound, the T/C (endpoint: mean tumor weight, dose: 0.23 mg/kg/injection, schedule: Q01DX009 (ip), vehicle: water, higher = larger tumour) was 49 % of control, the T/C (endpoint: mean tumor weight, dose: 0.25 mg/kg/injection, schedule: Q01DX011 (ip), vehicle: water, higher = larger tumour) was 105 % of control and the T/C (endpoint: median survival time, dose: 0.05 mg/kg/injection, schedule: Q01DX004 (ip), vehicle: water, higher = longer survival) was 107 % of control. For the same compound, the T/C (endpoint: median survival time, dose: 0.05 mg/kg/injection, schedule: Q09DX009 (ip), vehicle: water, higher = longer survival) was 92 % of control, the T/C (endpoint: median survival time, dose: 0.06 mg/kg/injection, schedule: Q01DX011 (ip), vehicle: water, higher = longer survival) was 102 % of control and 104 % of control and the T/C (endpoint: median survival time, dose: 0.08 mg/kg/injection, schedule: Q01DX004 (ip), vehicle: water, higher = longer survival) was 110 % of control. The T/C (endpoint: median survival time, dose: 0.08 mg/kg/injection, schedule: Q09DX009 (ip), vehicle: water, higher = longer survival) was 113 % of control, the T/C (endpoint: median survival time, dose: 0.12 mg/kg/injection, schedule: Q01DX011 (ip), vehicle: water, higher = longer survival) was 92 % of control and 123 % of control and the T/C (endpoint: median survival time, dose: 0.14 mg/kg/injection, schedule: Q01DX004 (ip), vehicle: water, higher = longer survival) was 98 % of control. The T/C (endpoint: median survival time, dose: 0.14 mg/kg/injection, schedule: Q01DX009 (ip), vehicle: none, higher = longer survival) was 158 % of control, the T/C (endpoint: median survival time, dose: 0.23 mg/kg/injection, schedule: Q01DX004 (ip), vehicle: water, higher = longer survival) was 81 % of control and the T/C (endpoint: median survival time, dose: 0.23 mg/kg/injection, schedule: Q01DX009 (ip), vehicle: none, higher = longer survival) was 121 % of control. For the same compound, the T/C (endpoint: median survival time, dose: 0.23 mg/kg/injection, schedule: Q01DX009 (ip), vehicle: water, higher = longer survival) was 123 % of control, the T/C (endpoint: median survival time, dose: 0.25 mg/kg/injection, schedule: Q01DX011 (ip), vehicle: water, higher = longer survival) was 105 % of control and the T/C (endpoint: median survival time, dose: 0.39 mg/kg/injection, schedule: Q01DX004 (ip), vehicle: water, higher = longer survival) was 56 % of control. For the same compound, the T/C (endpoint: median survival time, dose: 0.39 mg/kg/injection, schedule: Q01DX009 (ip), vehicle: none, higher = longer survival) was 50 % of control, the T/C (endpoint: median survival time, dose: 0.39 mg/kg/injection, schedule: Q09DX009 (ip), vehicle: water, higher = longer survival) was 58 % of control and the T/C (endpoint: median survival time, dose: 0.65 mg/kg/injection, schedule: Q01DX009 (ip), vehicle: none, higher = longer survival) was 36 % of control.

In the case of `COC12C(COC(N)=O)C3=C(C(=O)C(C)=C(N)C3=O)N1CC1C2N1C` (stereo unspecified), the T/C (endpoint: median survival time, dose: 2.0 mg/kg/injection, schedule: Q01DX009 (ip), vehicle: Klucel (hydroxypropylcellulose) (HPC), higher = longer survival) is reported as 92 % of control and 105 % of control, the T/C (endpoint: median survival time, dose: 2.0 mg/kg/injection, schedule: Q01DX011 (ip), vehicle: saline + alcohol, higher = longer survival) is reported as 101 % of control and 111 % of control and the T/C (endpoint: median survival time, dose: 4.0 mg/kg/injection, schedule: Q01DX009 (ip), vehicle: Klucel (hydroxypropylcellulose) (HPC), higher = longer survival) is reported as 100 % of control and 106 % of control. For the same compound, the T/C (endpoint: median survival time, dose: 4.0 mg/kg/injection, schedule: Q01DX011 (ip), vehicle: saline + alcohol, higher = longer survival) was 105 % of control.

In the case of `CCOC(=O)N1c2ccccc2C=CC1C#N` (stereo unspecified), the T/C (endpoint: mean tumor weight (est.), dose: 50.0 mg/kg/injection, schedule: Q01DX011 (ip), vehicle: saline with Tween-80, higher = larger tumour) is reported as 67 % of control, the T/C (endpoint: mean tumor weight (est.), dose: 100.0 mg/kg/injection, schedule: Q01DX011 (ip), vehicle: saline with Tween-80, higher = larger tumour) is reported as 91 % of control and the T/C (endpoint: mean tumor weight (est.), dose: 200.0 mg/kg/injection, schedule: Q01DX011 (ip), vehicle: saline with Tween-80, higher = larger tumour) is reported as 72 % of control. For the same compound, the T/C (endpoint: mean tumor weight (est.), dose: 400.0 mg/kg/injection, schedule: Q01DX011 (ip), vehicle: saline with Tween-80, higher = larger tumour) was 59 % of control, the T/C (endpoint: median survival time, dose: 50.0 mg/kg/injection, schedule: Q01DX011 (ip), vehicle: saline with Tween-80, higher = longer survival) was 94 % of control and the T/C (endpoint: median survival time, dose: 100.0 mg/kg/injection, schedule: Q01DX011 (ip), vehicle: saline with Tween-80, higher = longer survival) was 90 % of control. The T/C (endpoint: median survival time, dose: 200.0 mg/kg/injection, schedule: Q01DX011 (ip), vehicle: saline with Tween-80, higher = longer survival) was 96 % of control and the T/C (endpoint: median survival time, dose: 400.0 mg/kg/injection, schedule: Q01DX011 (ip), vehicle: saline with Tween-80, higher = longer survival) was 88 % of control.

In the case of `C/C(=C\COc1ccc2ccc(=O)oc2c1)C1=CC(=O)C(C)(C)O1`, the T/C (endpoint: mean tumor weight, dose: 100.0 mg/kg/injection, schedule: Q01DX011 (ip), vehicle: saline, higher = larger tumour) is reported as 55 % of control, the T/C (endpoint: mean tumor weight, dose: 200.0 mg/kg/injection, schedule: Q01DX011 (ip), vehicle: saline, higher = larger tumour) is reported as 47 % of control and the T/C (endpoint: mean tumor weight, dose: 400.0 mg/kg/injection, schedule: Q01DX011 (ip), vehicle: saline, higher = larger tumour) is reported as 62 % of control. The T/C [1] was 108 % of control, the T/C (endpoint: median survival time, dose: 200.0 mg/kg/injection, schedule: Q01DX011 (ip), vehicle: saline, higher = longer survival) was 100 % of control and the T/C (endpoint: median survival time, dose: 400.0 mg/kg/injection, schedule: Q01DX011 (ip), vehicle: saline, higher = longer survival) was 102 % of control.

For `CC(C(=O)O)N1C(=O)c2ccccc2C1=O` (stereo unspecified), the T/C (endpoint: median survival time, dose: 4.0 mg/kg/injection, schedule: Q01DX009 (ip), vehicle: water, higher = longer survival) was 110 % of control, the T/C (endpoint: median survival time, dose: 8.0 mg/kg/injection, schedule: Q01DX009 (ip), vehicle: water, higher = longer survival) was 107 % of control and the T/C (endpoint: median survival time, dose: 16.0 mg/kg/injection, schedule: Q01DX009 (ip), vehicle: water, higher = longer survival) was 103 % of control. For the same compound, the T/C (endpoint: median survival time, dose: 32.0 mg/kg/injection, schedule: Q01DX009 (ip), vehicle: water, higher = longer survival) was 108 % of control.

`CN=C1N[N+]2=CCCCC2S1` (stereo unspecified) was tested, and the T/C (endpoint: median survival time, dose: 40.0 mg/kg/injection, schedule: Q02DX011 (ip), vehicle: saline with Tween-80, higher = longer survival) was 99 % of control, the T/C (endpoint: median survival time, dose: 60.0 mg/kg/injection, schedule: Q02DX011 (ip), vehicle: saline with Tween-80, higher = longer survival) was 86 % of control and the T/C (endpoint: median survival time, dose: 80.0 mg/kg/injection, schedule: Q02DX011 (ip), vehicle: saline with Tween-80, higher = longer survival) was 93 % of control.

In the case of `CCCCCCCCCCCC[S+](C)C`, the T/C (endpoint: median survival time, dose: 2.0 mg/kg/injection, schedule: Q01DX011 (ip), vehicle: saline, higher = longer survival) is reported as 100 % of control and the T/C (endpoint: median survival time, dose: 4.0 mg/kg/injection, schedule: Q01DX011 (ip), vehicle: saline, higher = longer survival) is reported as 114 % of control.
